Results: publication PMC5855800, “Charged N-terminus of Influenza Fusion Peptide Facilitates Membrane Fusion” (International Journal of Molecular Sciences, 2018)
“And” between values parts separate entries of the source, which are not always exact repeats. Equal entries are not always repeated. Where two headings read alike, the source gives them in different places.

Key:
[1] = type: binding
[2] = pH 5
[3] = NMR, cited from earlier work
Text: These values are considerably higher than expected in a hydrophobic environment (8.00 ± 0.03). […] T ...

[4] = POPC vesicles; cited from earlier work
Text: Since the early observations by Lear and de Grado [2] showing that membrane fusion of lipid vesicles can be accomplished by a short N-terminal synthetic fragment of HA2 subunit, such fusion peptides (HAfp) have been extensively used as full-length hemagglutinin mimicking species in the studies on membrane fusion. […] This is ...

Row | Compound | Gibbs binding free energy ΔGx^0 ([1]; pH 5.0) | Gibbs binding free energy ΔGx^0 ([1]; pH 7.4) | NBD-C6-PE fluorescence lifetime with peptide [2] | pK for G1 N-terminal amino group ([3]; in the presence of dioleoyl phosphocholine (PC) lipids) | Ability to induce membrane fusion, in words [4] | Difference of ∆G^0 between N-acetylated and unmodified peptide of the same length ([1]; pH 5.0) | Partition coefficient Kx·10^−3 ([1]; 22.0 °C) | pK for G1 N-terminal amino group ([3]; in the presence of dodecylphosphatidyl (DPC) detergents)
1 | CC[C@H](C)[C@H](NC(=O)[C@H](C)NC(=O)CNC(=O)[C@H](Cc1ccccc1)NC(=O)[C@H](CC(C)C)NC(=O)CNC(C)=O)C(=O)N[C@@H](C)C(=O)NCC(=O)N[C@@H](Cc1ccccc1)C(=O)N[C@H](C(=O)N[C@@H](CCC(=O)O)C(=O)NCC(=O)NCC(=O)N[C@@H](Cc1c[nH]c2ccccc12)C(=O)N[C@@H](CCC(N)=O)C(=O)NCC(=O)N[C@@H](CCSC)C(=O)N[C@H](C(=O)N[C@@H](CC(=O)O)C(=O)NCC(N)=O)C(C)C)[C@@H](C)CC [20Ac] | -7.55 ± 0.048 kcal/mol | -6.86 ± 0.048 kcal/mol |  |  |  |  |  | 
2 | CC[C@H](C)[C@H](NC(=O)[C@H](C)NC(=O)CNC(=O)[C@H](Cc1ccccc1)NC(=O)[C@H](CC(C)C)NC(=O)CN)C(=O)N[C@@H](C)C(=O)NCC(=O)N[C@@H](Cc1ccccc1)C(=O)N[C@H](C(=O)N[C@@H](CCC(=O)O)C(=O)NCC(=O)NCC(=O)N[C@@H](Cc1c[nH]c2ccccc12)C(=O)N[C@@H](CCC(N)=O)C(=O)NCC(=O)N[C@@H](CCSC)C(=O)N[C@H](C(=O)N[C@@H](CC(=O)O)C(=O)NCC(N)=O)C(C)C)[C@@H](C)CC [20N+] | -7.84 ± 0.072 kcal/mol | -7.19 ± 0.096 kcal/mol | 6.78 ± 0.20 ns | 8.69 | able to induce membrane fusion |  |  | 
3 | CC[C@H](C)[C@H](NC(=O)[C@H](C)NC(=O)CNC(=O)[C@H](Cc1ccccc1)NC(=O)[C@H](CC(C)C)NC(=O)CNC(C)=O)C(=O)N[C@@H](C)C(=O)NCC(=O)N[C@@H](Cc1ccccc1)C(=O)N[C@H](C(=O)N[C@@H](CCC(=O)O)C(=O)NCC(=O)NCC(=O)N[C@@H](Cc1c[nH]c2ccccc12)C(=O)N[C@@H](CCC(N)=O)C(=O)NCC(=O)N[C@@H](CCSC)C(=O)N[C@H](C(=O)N[C@@H](CC(=O)O)C(=O)NCC(=O)N[C@@H](Cc1c[nH]c2ccccc12)C(=O)N[C@@H](Cc1ccc(O)cc1)C(=O)NCC(N)=O)C(C)C)[C@@H](C)CC [23Ac] | -8.41 ± 0.072 kcal/mol | -8.94 ± 0.048 kcal/mol | 6.66 ± 0.25 ns |  |  | ~ 2.3 kJ/mol |  | 
4 | CC[C@H](C)[C@H](NC(=O)[C@H](C)NC(=O)CNC(=O)[C@H](Cc1ccccc1)NC(=O)[C@H](CC(C)C)NC(=O)CN)C(=O)N[C@@H](C)C(=O)NCC(=O)N[C@@H](Cc1ccccc1)C(=O)N[C@H](C(=O)N[C@@H](CCC(=O)O)C(=O)NCC(=O)NCC(=O)N[C@@H](Cc1c[nH]c2ccccc12)C(=O)N[C@@H](CCC(N)=O)C(=O)NCC(=O)N[C@@H](CCSC)C(=O)N[C@H](C(=O)N[C@@H](CC(=O)O)C(=O)NCC(=O)N[C@@H](Cc1c[nH]c2ccccc12)C(=O)N[C@@H](Cc1ccc(O)cc1)C(=O)NCC(N)=O)C(C)C)[C@@H](C)CC [23N+] | -7.86 ± 0.072 kcal/mol | -7.67 ± 0.17 kcal/mol | 6.55 ± 0.23 ns |  |  |  | 660 ± 80 and 480 ± 130 | 8.8
